This passage reports IC50 results from patent US20090299044A1 (priority 2006, published 2009).

One assay addresses T1, human Kv1.1 (HEK293) (Homo sapiens, UniProt Q09470).
T1 construct: expressed in transfected cells; host or cells: HEK293
Briefly: cell-based.

For the next assay, the target named is T2, human Kv1.3 (CHO) (Homo sapiens, UniProt P22001).
T2 construct: expressed in transfected cells; host or cells: CHO
The assay is described as follows: cell-based.

pIC50: −log10 of the molar value. Bridge positions count the residues as written; N and C are the ends. Peptide text beside a SMILES is read from it.

T2 sequence (P22001 whole entry): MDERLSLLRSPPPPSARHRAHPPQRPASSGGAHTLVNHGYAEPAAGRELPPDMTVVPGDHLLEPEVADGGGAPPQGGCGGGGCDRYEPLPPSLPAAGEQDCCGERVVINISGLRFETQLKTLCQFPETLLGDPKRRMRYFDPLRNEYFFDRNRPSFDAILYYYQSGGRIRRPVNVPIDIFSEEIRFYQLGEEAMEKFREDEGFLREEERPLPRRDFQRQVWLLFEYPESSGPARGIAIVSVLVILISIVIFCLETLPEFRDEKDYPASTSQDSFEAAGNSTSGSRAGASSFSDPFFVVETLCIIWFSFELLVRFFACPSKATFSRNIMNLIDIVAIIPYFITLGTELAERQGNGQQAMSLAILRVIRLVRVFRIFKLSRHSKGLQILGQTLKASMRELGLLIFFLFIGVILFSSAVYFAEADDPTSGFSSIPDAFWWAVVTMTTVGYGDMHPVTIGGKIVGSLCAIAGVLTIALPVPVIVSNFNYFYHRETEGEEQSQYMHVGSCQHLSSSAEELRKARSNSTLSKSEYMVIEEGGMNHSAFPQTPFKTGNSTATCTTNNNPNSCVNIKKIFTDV
T1 sequence (Q09470 whole entry): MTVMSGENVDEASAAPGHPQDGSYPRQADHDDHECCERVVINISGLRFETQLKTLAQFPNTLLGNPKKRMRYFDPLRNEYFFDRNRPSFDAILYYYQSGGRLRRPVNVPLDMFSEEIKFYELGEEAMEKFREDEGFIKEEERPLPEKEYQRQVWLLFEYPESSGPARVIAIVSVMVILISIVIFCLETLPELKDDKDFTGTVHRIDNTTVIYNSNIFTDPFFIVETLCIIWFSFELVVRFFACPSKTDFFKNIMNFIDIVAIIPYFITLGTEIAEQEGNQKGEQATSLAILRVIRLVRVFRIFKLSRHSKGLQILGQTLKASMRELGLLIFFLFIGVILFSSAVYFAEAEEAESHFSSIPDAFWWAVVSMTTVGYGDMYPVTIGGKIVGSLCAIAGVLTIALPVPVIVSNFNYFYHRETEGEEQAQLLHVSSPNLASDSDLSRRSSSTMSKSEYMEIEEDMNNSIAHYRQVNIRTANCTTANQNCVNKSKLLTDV

The term pIC50 denotes −log10 of the IC50, conventionally taken in molar units. The low end stands for a high IC50, the high end for a low IC50. In the case of `CC[C@H](C)[C@@H]1NC(=O)[C@H](CCCCN)NC(=O)[C@@H](NC(=O)[C@H](CCCCN)NC(=O)[C@@H](NC(=O)[C@H](CC(N)=O)NC(=O)[C@@H](NC(=O)[C@@H](NC(=O)[C@@H](NC(=O)CN)C(C)C)[C@@H](C)CC)[C@@H](C)CC)C(C)C)CSSC[C@@H]2NC(=O)[C@H](CCCCN)NC(=O)[C@H](CCC(=O)O)NC(=O)[C@H](Cc3ccccc3)NC(=O)[C@H](CCCNC(=N)N)NC(=O)[C@H](CCSC)NC(=O)CNC(=O)[C@H](C)NC(=O)[C@H](CCCCN)NC(=O)[C@H](CCCCN)NC(=O)[C@@H]3CSSC[C@@H](C(=O)N[C@H](C(=O)N4CCC[C@H]4C(=O)N[C@@H](CCCCN)C(=O)O)[C@@H](C)O)NC(=O)[C@H](Cc4c[nH]cn4)NC(=O)[C@H](CSSC[C@H](NC(=O)[C@H](CCC(N)=O)NC(=O)[C@H](CCCNC(=N)N)NC(=O)[C@H](CO)NC1=O)C(=O)N[C@@H](CC(C)C)C(=O)N[C@@H](CCC(=O)O)C(=O)N1CCC[C@H]1C(=O)N3)NC(=O)[C@H](CCCCN)NC(=O)CNC(=O)[C@H](CC(N)=O)NC(=O)[C@H](CCSC)NC2=O` [G26E] (H-GVIINVKCKISRQCLEPCKKAGMRFEKCMNGKCHCTPK-OH; disulfide 8-28, 14-33, 18-35), the pIC50 against human Kv1.1 (HEK293) and on human Kv1.3 (CHO) was below 8.48 throughout.
For the compound `CC[C@H](C)[C@@H]1NC(=O)[C@H](CCCCN)NC(=O)[C@@H](NC(=O)[C@H](CCCCN)NC(=O)[C@@H](NC(=O)[C@H](CC(N)=O)NC(=O)[C@@H](NC(=O)[C@@H](NC(=O)[C@@H](NC(=O)CN)C(C)C)[C@@H](C)CC)[C@@H](C)CC)C(C)C)CSSC[C@@H]2NC(=O)[C@H](CCCCN)NC(=O)[C@H](CCCNC(=N)N)NC(=O)[C@H](Cc3ccccc3)NC(=O)[C@H](CCCNC(=N)N)NC(=O)[C@H](CCSC)NC(=O)CNC(=O)[C@H](C)NC(=O)[C@H](CCCCN)NC(=O)[C@H](CCCCN)NC(=O)[C@@H]3CSSC[C@@H](C(=O)N[C@H](C(=O)N4CCC[C@H]4C(=O)N[C@@H](CCCCN)C(=O)O)[C@@H](C)O)NC(=O)[C@H](Cc4c[nH]cn4)NC(=O)[C@H](CSSC[C@H](NC(=O)[C@H](CCC(N)=O)NC(=O)[C@H](CCCNC(=N)N)NC(=O)[C@H](CO)NC1=O)C(=O)N[C@@H](CC(C)C)C(=O)N[C@@H](CCC(=O)O)C(=O)N1CCC[C@H]1C(=O)N3)NC(=O)[C@H](CCCCN)NC(=O)CNC(=O)[C@H](CC(N)=O)NC(=O)[C@H](CCSC)NC2=O` [G26R] (H-GVIINVKCKISRQCLEPCKKAGMRFRKCMNGKCHCTPK-OH; disulfide 8-28, 14-33, 18-35), the pIC50 on human Kv1.1 (HEK293) and against human Kv1.3 (CHO) was below 8.48 in each case.
Turning to `CC[C@H](C)[C@@H]1NC(=O)[C@H](CCCCN)NC(=O)[C@@H](NC(=O)[C@H](CCCCN)NC(=O)[C@@H](NC(=O)[C@H](CC(N)=O)NC(=O)[C@@H](NC(=O)[C@@H](NC(=O)[C@@H](NC(=O)CN)C(C)C)[C@@H](C)CC)[C@@H](C)CC)C(C)C)CSSC[C@@H]2NC(=O)[C@H](CCCCN)NC(=O)CNC(=O)[C@H](Cc3ccccc3)NC(=O)[C@H](CCCNC(=N)N)NC(=O)[C@H](CCSC)NC(=O)CNC(=O)[C@H](C)NC(=O)[C@H](CCCCN)NC(=O)[C@H](CCCCN)NC(=O)[C@@H]3CSSC[C@@H](C(=O)N[C@H](C(=O)N4CCC[C@H]4C(=O)N[C@@H](CCCCN)C(=O)O)[C@@H](C)O)NC(=O)[C@H](Cc4c[nH]cn4)NC(=O)[C@H](CSSC[C@H](NC(=O)[C@H](CCC(N)=O)NC(=O)[C@H](CCCNC(=N)N)NC(=O)[C@H](CO)NC1=O)C(=O)N[C@@H](CC(C)C)C(=O)N[C@@H](CCC(=O)O)C(=O)N1CCC[C@H]1C(=O)N3)NC(=O)[C@H](CCCCN)NC(=O)[C@H](C)NC(=O)[C@H](CC(N)=O)NC(=O)[C@H](CCSC)NC2=O` [G31A] (H-GVIINVKCKISRQCLEPCKKAGMRFGKCMNAKCHCTPK-OH; disulfide 8-28, 14-33, 18-35), the negative-log IC50 (pIC50) on human Kv1.1 (HEK293) is 10.21; against human Kv1.3 (CHO) it was 10.15.
On the same counts, the results for `CC[C@H](C)[C@@H]1NC(=O)[C@H](CCCCN)NC(=O)[C@@H](NC(=O)[C@H](CCCCN)NC(=O)[C@@H](NC(=O)[C@H](CC(N)=O)NC(=O)[C@@H](NC(=O)[C@@H](NC(=O)[C@@H](NC(=O)CN)C(C)C)[C@@H](C)CC)[C@@H](C)CC)C(C)C)CSSC[C@@H]2NC(=O)[C@H](CCCCN)NC(=O)CNC(=O)[C@H](Cc3ccccc3)NC(=O)[C@H](CCCNC(=N)N)NC(=O)[C@H](CCSC)NC(=O)CNC(=O)[C@H](C)NC(=O)[C@H](CCCCN)NC(=O)[C@H](CCCCN)NC(=O)[C@@H]3CSSC[C@@H](C(=O)N[C@H](C(=O)N4CCC[C@H]4C(=O)N[C@@H](CCCCN)C(=O)O)[C@@H](C)O)NC(=O)[C@H](Cc4c[nH]cn4)NC(=O)[C@H](CSSC[C@H](NC(=O)[C@H](CCC(N)=O)NC(=O)[C@H](CCCNC(=N)N)NC(=O)[C@H](CO)NC1=O)C(=O)N[C@@H](CC(C)C)C(=O)N[C@@H](CCC(=O)O)C(=O)N1CCC[C@H]1C(=O)N3)NC(=O)[C@H](CCCCN)NC(=O)[C@H](CCC(=O)O)NC(=O)[C@H](CC(N)=O)NC(=O)[C@H](CCSC)NC2=O` [G31E] (H-GVIINVKCKISRQCLEPCKKAGMRFGKCMNEKCHCTPK-OH; disulfide 8-28, 14-33, 18-35) are 11.63 and 10.92.
On the same counts, the results for `CC[C@H](C)[C@@H]1NC(=O)[C@H](CCCCN)NC(=O)[C@@H](NC(=O)[C@H](CCCCN)NC(=O)[C@@H](NC(=O)[C@H](CC(N)=O)NC(=O)[C@@H](NC(=O)[C@@H](NC(=O)[C@@H](NC(=O)CN)C(C)C)[C@@H](C)CC)[C@@H](C)CC)C(C)C)CSSC[C@@H]2NC(=O)[C@H](CCCCN)NC(=O)CNC(=O)[C@H](Cc3ccccc3)NC(=O)[C@H](CCCNC(=N)N)NC(=O)[C@H](CCSC)NC(=O)CNC(=O)[C@H](C)NC(=O)[C@H](CCCCN)NC(=O)[C@H](CCCCN)NC(=O)[C@@H]3CSSC[C@@H](C(=O)N[C@H](C(=O)N4CCC[C@H]4C(=O)N[C@@H](CCCCN)C(=O)O)[C@@H](C)O)NC(=O)[C@H](Cc4c[nH]cn4)NC(=O)[C@H](CSSC[C@H](NC(=O)[C@H](CCC(N)=O)NC(=O)[C@H](CCCNC(=N)N)NC(=O)[C@H](CO)NC1=O)C(=O)N[C@@H](CC(C)C)C(=O)N[C@@H](CCC(=O)O)C(=O)N1CCC[C@H]1C(=O)N3)NC(=O)[C@H](CCCCN)NC(=O)[C@H](CCCNC(=N)N)NC(=O)[C@H](CC(N)=O)NC(=O)[C@H](CCSC)NC2=O` [G31R] are 11.80 and 10.65.
`CC[C@H](C)[C@@H]1NC(=O)[C@H](CCCCN)NC(=O)[C@@H](NC(=O)[C@H](CCCCN)NC(=O)[C@@H](NC(=O)[C@H](CC(N)=O)NC(=O)[C@@H](NC(=O)[C@@H](NC(=O)[C@@H](NC(=O)CN)C(C)C)[C@@H](C)CC)[C@@H](C)CC)C(C)C)CSSC[C@@H]2NC(=O)[C@H](CCCCN)NC(=O)CNC(=O)[C@H](Cc3ccccc3)NC(=O)[C@H](CCCNC(=N)N)NC(=O)[C@H](CCSC)NC(=O)CNC(=O)[C@H](C)NC(=O)[C@H](CCCCN)NC(=O)[C@H](CCCCN)NC(=O)[C@@H]3CSSC[C@@H](C(=O)N[C@H](C(=O)N4CCC[C@H]4C(=O)N[C@@H](CCCCN)C(=O)O)[C@@H](C)O)NC(=O)[C@H](CCCNC(=N)N)NC(=O)[C@H](CSSC[C@H](NC(=O)[C@H](CCC(N)=O)NC(=O)[C@H](CCCNC(=N)N)NC(=O)[C@H](CO)NC1=O)C(=O)N[C@@H](CC(C)C)C(=O)N[C@@H](CCC(=O)O)C(=O)N1CCC[C@H]1C(=O)N3)NC(=O)[C@H](CCCCN)NC(=O)CNC(=O)[C@H](CC(N)=O)NC(=O)[C@H](CCSC)NC2=O` [H34R] (H-GVIINVKCKISRQCLEPCKKAGMRFGKCMNGKCRCTPK-OH; disulfide 8-28, 14-33, 18-35): the results for the pIC50 against human Kv1.1 (HEK293) and on human Kv1.3 (CHO) were 11.35 and 10.87, respectively.
The matching figures for `CC[C@H](C)[C@H](NC(=O)[C@H](C)NC(=O)[C@@H](NC(=O)CN)C(C)C)C(=O)N[C@@H](CC(N)=O)C(=O)N[C@H](C(=O)N[C@@H](CCCCN)C(=O)N[C@H]1CSSC[C@@H]2NC(=O)[C@H](CCCCN)NC(=O)CNC(=O)[C@H](Cc3ccccc3)NC(=O)[C@H](CCCNC(=N)N)NC(=O)[C@H](CCSC)NC(=O)CNC(=O)[C@H](C)NC(=O)[C@H](CCCCN)NC(=O)[C@H](CCCCN)NC(=O)[C@@H]3CSSC[C@@H](C(=O)N[C@H](C(=O)N4CCC[C@H]4C(=O)N[C@@H](CCCCN)C(=O)O)[C@@H](C)O)NC(=O)[C@H](Cc4c[nH]cn4)NC(=O)[C@H](CSSC[C@H](NC(=O)[C@H](CCC(N)=O)NC(=O)[C@H](CCCNC(=N)N)NC(=O)[C@H](CO)NC(=O)[C@H]([C@@H](C)CC)NC(=O)[C@H](CCCCN)NC1=O)C(=O)N[C@@H](CC(C)C)C(=O)N[C@@H](CCC(=O)O)C(=O)N1CCC[C@H]1C(=O)N3)NC(=O)[C@H](CCCCN)NC(=O)CNC(=O)[C@H](CC(N)=O)NC(=O)[C@H](CCSC)NC2=O)C(C)C` [I3A] (H-GVAINVKCKISRQCLEPCKKAGMRFGKCMNGKCHCTPK-OH; disulfide 8-28, 14-33, 18-35): 10.97 and 10.02.
On the same counts, the results for `CC[C@H](C)[C@@H]1NC(=O)[C@H](CCCCN)NC(=O)[C@@H](NC(=O)[C@H](CCCCN)NC(=O)[C@@H](NC(=O)[C@H](CC(N)=O)NC(=O)[C@@H](NC(=O)[C@H](CCC(=O)O)NC(=O)[C@@H](NC(=O)CN)C(C)C)[C@@H](C)CC)C(C)C)CSSC[C@@H]2NC(=O)[C@H](CCCCN)NC(=O)CNC(=O)[C@H](Cc3ccccc3)NC(=O)[C@H](CCCNC(=N)N)NC(=O)[C@H](CCSC)NC(=O)CNC(=O)[C@H](C)NC(=O)[C@H](CCCCN)NC(=O)[C@H](CCCCN)NC(=O)[C@@H]3CSSC[C@@H](C(=O)N[C@H](C(=O)N4CCC[C@H]4C(=O)N[C@@H](CCCCN)C(=O)O)[C@@H](C)O)NC(=O)[C@H](Cc4c[nH]cn4)NC(=O)[C@H](CSSC[C@H](NC(=O)[C@H](CCC(N)=O)NC(=O)[C@H](CCCNC(=N)N)NC(=O)[C@H](CO)NC1=O)C(=O)N[C@@H](CC(C)C)C(=O)N[C@@H](CCC(=O)O)C(=O)N1CCC[C@H]1C(=O)N3)NC(=O)[C@H](CCCCN)NC(=O)CNC(=O)[C@H](CC(N)=O)NC(=O)[C@H](CCSC)NC2=O` [I3E] (H-GVEINVKCKISRQCLEPCKKAGMRFGKCMNGKCHCTPK-OH; disulfide 8-28, 14-33, 18-35) are 10.37 and 10.66.
